Source: ChEMBL document CHEMBL3112450, “Synthesis and in vitro antitumor evaluation of primary amine substituted quinazoline linked benzimidazole” (Bioorg Med Chem Lett, 2014)

Key:
[1] = Cytotoxicity against human UACC257 cells assessed as cell growth at 10^-7 M after 48 hrs by SRB assay; assay type: functional; conditions: UACC-257, 48 h, read-out: Activity
[2] = tested on: A549; assay: Cytotoxicity against human A549 cells after 48 hrs by SRB assay; assay type: functional; conditions: A549, 48 h
[3] = tested on: A549; assay: Cytotoxicity against human A549 cells assessed as cell growth at 10^-7 M after 48 hrs by SRB assay; assay type: functional; conditions: A549, 48 h, read-out: Activity
[4] = tested on: OVCAR-3; assay: Cytotoxicity against human OVCAR3 cells assessed as cell growth at 10^-4 M after 48 hrs by SRB assay; assay type: functional; conditions: OVCAR-3, 48 h, read-out: Activity
[5] = Cytotoxicity against human UACC257 cells assessed as cell growth at 10^-4 M after 48 hrs by SRB assay; assay type: functional; conditions: UACC-257, 48 h, read-out: Activity
[6] = tested on: A549; assay: Cytotoxicity against human A549 cells assessed as cell growth at 10^-4 M after 48 hrs by SRB assay; assay type: functional; conditions: A549, 48 h, read-out: Activity
[7] = Cytotoxicity against human UACC257 cells assessed as cell growth at 10^-8 M after 48 hrs by SRB assay; assay type: functional; conditions: UACC-257, 48 h, read-out: Activity
[8] = tested on: A549; assay: Cytotoxicity against human A549 cells assessed as cell growth at 10^-8 M after 48 hrs by SRB assay; assay type: functional; conditions: A549, 48 h, read-out: Activity
[9] = tested on: BT-549; assay: Cytotoxicity against human BT549 cells assessed as growth inhibition at 10 uM after 48 hrs by SRB assay; assay type: functional; conditions: BT-549, 48 h, read-out: GI
[10] = Cytotoxicity against human NCI-ADR-RES cells assessed as growth inhibition at 10 uM after 48 hrs by SRB assay; assay type: functional; conditions: read-out: GI
[11] = tested on: SNB-19; assay: Cytotoxicity against human SNB19 cells assessed as growth inhibition at 10 uM after 48 hrs by SRB assay; assay type: functional; conditions: SNB-19, 48 h, read-out: GI
[12] = Cytotoxicity against human UACC257 cells after 48 hrs by SRB assay; assay type: functional; conditions: UACC-257, 48 h
[13] = tested on: NCI-H23; assay: Cytotoxicity against human NCI-H23 cells assessed as growth inhibition at 10 uM after 48 hrs by SRB assay; assay type: functional; conditions: NCI-H23, 48 h, read-out: GI
[14] = Cytotoxicity against human EKVX cells assessed as growth inhibition at 10 uM after 48 hrs by SRB assay; assay type: functional; conditions: read-out: GI
[15] = tested on: A549; assay: Cytotoxicity against human A549 cells assessed as cell growth at 10^-6 M after 48 hrs by SRB assay; assay type: functional; conditions: A549, 48 h, read-out: Activity
[16] = tested on: SNB-75; assay: Cytotoxicity against human SNB75 cells after 48 hrs by SRB assay; assay type: functional, cell-based; conditions: SNB-75, 48 h
[17] = tested on: SNB-75; assay: Cytotoxicity against human SNB75 cells assessed as cell growth at 10^-6 M after 48 hrs by SRB assay; assay type: functional; conditions: SNB-75, 48 h, read-out: Activity
[18] = tested on: SNB-75; assay: Cytotoxicity against human SNB75 cells assessed as cell growth at 10^-7 M after 48 hrs by SRB assay; assay type: functional; conditions: SNB-75, 48 h, read-out: Activity
[19] = tested on: SNB-75; assay: Cytotoxicity against human SNB75 cells assessed as cell growth at 10^-8 M after 48 hrs by SRB assay; assay type: functional; conditions: SNB-75, 48 h, read-out: Activity
[20] = tested on: MDA-MB-468; assay: Cytotoxicity against human MDA-MB-468 cells assessed as growth inhibition at 10 uM after 48 hrs by SRB assay; assay type: functional; conditions: MDA-MB-468, 48 h, read-out: GI
[21] = tested on: MDA-MB-231; assay: Cytotoxicity against human MDA-MB-231 cells assessed as growth inhibition at 10 uM after 48 hrs by SRB assay; assay type: functional; conditions: MDA-MB-231, 48 h, read-out: GI
[22] = tested on: MCF7; assay: Cytotoxicity against human MCF7 cells assessed as growth inhibition at 10 uM after 48 hrs by SRB assay; assay type: functional; conditions: MCF7, 48 h, read-out: GI
[23] = tested on: PC-3; assay: Cytotoxicity against human PC3 cells assessed as growth inhibition at 10 uM after 48 hrs by SRB assay; assay type: functional; conditions: PC-3, 48 h, read-out: GI
[24] = Cytotoxicity against human UO31 cells assessed as growth inhibition at 10 uM after 48 hrs by SRB assay; assay type: functional; conditions: UO-31, 48 h, read-out: GI
[25] = tested on: SN12C; assay: Cytotoxicity against human SN12C cells assessed as growth inhibition at 10 uM after 48 hrs by SRB assay; assay type: functional; conditions: read-out: GI
[26] = Cytotoxicity against human OVCAR4 cells assessed as growth inhibition at 10 uM after 48 hrs by SRB assay; assay type: functional; conditions: OVCAR-4, 48 h, read-out: GI
[27] = tested on: SK-MEL-5; assay: Cytotoxicity against human SK-MEL-5 cells assessed as growth inhibition at 10 uM after 48 hrs by SRB assay; assay type: functional; conditions: SK-MEL-5, 48 h, read-out: GI
[28] = tested on: SK-MEL-2; assay: Cytotoxicity against human SK-MEL-2 cells assessed as growth inhibition at 10 uM after 48 hrs by SRB assay; assay type: functional; conditions: SK-MEL-2, 48 h, read-out: GI
[29] = tested on: MDA-MB-435; assay: Cytotoxicity against human MDA-MB-435 cells assessed as growth inhibition at 10 uM after 48 hrs by SRB assay; assay type: functional; conditions: MDA-MB-435, 48 h, read-out: GI
[30] = tested on: SF-295; assay: Cytotoxicity against human SF295 cells assessed as growth inhibition at 10 uM after 48 hrs by SRB assay; assay type: functional; conditions: SF-295, 48 h, read-out: GI
[31] = tested on: SW-620; assay: Cytotoxicity against human SW620 cells assessed as growth inhibition at 10 uM after 48 hrs by SRB assay; assay type: functional; conditions: SW-620, 48 h, read-out: GI
[32] = tested on: KM12; assay: Cytotoxicity against human KM12 cells assessed as growth inhibition at 10 uM after 48 hrs by SRB assay; assay type: functional; conditions: KM12, 48 h, read-out: GI
[33] = tested on: HT-29; assay: Cytotoxicity against human HT-29 cells assessed as growth inhibition at 10 uM after 48 hrs by SRB assay; assay type: functional; conditions: HT-29, 48 h, read-out: GI
[34] = tested on: HCT-15; assay: Cytotoxicity against human HCT15 cells assessed as growth inhibition at 10 uM after 48 hrs by SRB assay; assay type: functional; conditions: HCT-15, 48 h, read-out: GI
[35] = tested on: HCT-116; assay: Cytotoxicity against human HCT116 cells assessed as growth inhibition at 10 uM after 48 hrs by SRB assay; assay type: functional; conditions: HCT-116, 48 h, read-out: GI
[36] = tested on: COLO 205; assay: Cytotoxicity against human COLO205 cells assessed as growth inhibition at 10 uM after 48 hrs by SRB assay; assay type: functional; conditions: COLO 205, 48 h, read-out: GI
[37] = tested on: NCI-H522; assay: Cytotoxicity against human NCI-H522 cells assessed as growth inhibition at 10 uM after 48 hrs by SRB assay; assay type: functional; conditions: NCI-H522, 48 h, read-out: GI
[38] = tested on: HL-60(TB); assay: Cytotoxicity against human HL-60(TB) cells assessed as growth inhibition at 10 uM after 48 hrs by SRB assay; assay type: functional; conditions: HL-60, 48 h, read-out: GI
[39] = tested on: K562; assay: Cytotoxicity against human K562 cells assessed as growth inhibition at 10 uM after 48 hrs by SRB assay; assay type: functional; conditions: K562, 48 h, read-out: GI

SMILES: C=CCn1c(C)nc2ccc(Nc3nc(Nc4ccc5nc(C)n(CC=C)c5c4)c4ccccc4n3)cc21
- growth at 0.1 µM [1]: 92%
- GI50 [2]: 1.72 µM
- TGI [2]: 3.22 µM
- growth at 0.1 µM [3]: 101%
- growth at 100 µM [4]: -48%
- growth at 100 µM [5]: -49%
- growth at 100 µM [6]: -14%
- growth at 0.01 µM [7]: 90%
- growth at 0.01 µM [8]: 99%
- inhibition of growth at 10 µM [9]: 30%
- inhibition of growth at 10 µM [10]: 40%
- inhibition of growth at 10 µM [11]: 50%
- GI50 [12]: 1.57 µM
- TGI [12]: 3.03 µM
- inhibition of growth at 10 µM [13]: 50%
- inhibition of growth at 10 µM [14]: 90%
- growth at 1 µM [15]: 93%

SMILES: C=CCn1c(C)nc2cc(Nc3nc(Nc4ccc5nc(C)n(CC=C)c5c4)c4ccccc4n3)ccc21
- GI50 [16]: 0.375 µM
- LC50 (concentration killing 50% of cells) [16]: 5.31 µM
- TGI [16]: 1.56 µM
- growth at 1 µM [17]: 18%
- growth at 0.1 µM [18]: 93%
- growth at 0.01 µM [19]: 84%

SMILES: C=CCn1c(C)nc2ccc(Nc3nc(Nc4ccc(F)cc4)nc4ccccc34)cc21
- growth at 0.1 µM [1]: 98%
- GI50 [2]: 4.18 µM
- LC50 [2]: > 100 µM
- TGI [2]: 22.2 µM
- growth at 0.1 µM [3]: 97%
- growth at 100 µM [4]: -90%
- growth at 100 µM [5]: -73%
- growth at 100 µM [6]: -49%
- growth at 0.01 µM [7]: 98%
- growth at 0.01 µM [8]: 94%
- inhibition of growth at 10 µM [20]: 50%
- inhibition of growth at 10 µM [9]: 40%
- inhibition of growth at 10 µM [21]: 30%
- inhibition of growth at 10 µM [22]: 70%
- inhibition of growth at 10 µM [23]: 50%
- inhibition of growth at 10 µM [24]: 50%
- inhibition of growth at 10 µM [25]: 30%
- inhibition of growth at 10 µM [10]: 50%
- inhibition of growth at 10 µM [26]: 50%
- inhibition of growth at 10 µM [27]: 50%
- inhibition of growth at 10 µM [28]: 40%
- inhibition of growth at 10 µM [29]: 40%
- GI50 [16]: 1.51 µM
- IC50 [16]: 7.5 µM
- TGI [16]: 3.37 µM
- growth at 1 µM [17]: 76%
- growth at 0.1 µM [18]: 80%
- growth at 0.01 µM [19]: 76%
- GI50 [12]: 13.1 µM
- LC50 (concentration killing 50% of cells) [12]: 68.3 µM
- TGI [12]: 29.9 µM
- inhibition of growth at 10 µM [30]: 50%
- inhibition of growth at 10 µM [31]: 50%
- inhibition of growth at 10 µM [32]: 50%
- inhibition of growth at 10 µM [33]: 70%
- inhibition of growth at 10 µM [34]: 50%
- inhibition of growth at 10 µM [35]: 70%
- inhibition of growth at 10 µM [36]: 50%
- inhibition of growth at 10 µM [37]: 40%
- inhibition of growth at 10 µM [13]: 40%
- inhibition of growth at 10 µM [38]: 40%
- inhibition of growth at 10 µM [39]: 70%
- growth at 1 µM [15]: 89%

SMILES: C=CCn1c(C)nc2cc(Nc3nc(NCCO)nc4ccccc34)ccc21
- inhibition of growth at 10 µM [20]: 40%
- inhibition of growth at 10 µM [21]: 30%
- inhibition of growth at 10 µM [22]: 30%
- inhibition of growth at 10 µM [23]: 30%
- inhibition of growth at 10 µM [24]: 30%
- inhibition of growth at 10 µM [26]: 30%
- inhibition of growth at 10 µM [27]: 30%
- inhibition of growth at 10 µM [31]: 30%
- inhibition of growth at 10 µM [32]: 30%
- inhibition of growth at 10 µM [33]: 30%
- inhibition of growth at 10 µM [35]: 30%
- inhibition of growth at 10 µM [36]: 50%
- inhibition of growth at 10 µM [39]: 30%
